Laboratory results as given in patent US7462600B2, “Macrolides” (Pfizer Inc, priority 2004, dated 2008).
≈ marks a conversion by molar mass, not a printed value. Like-named read-outs stand apart in the source and are kept apart here.

How the values were obtained:
Format in all cases: cell-based
[1] = system: Streptococcus pyogenes 1079; experiment: MIC, microtiter broth dilution (NCCLS M100-S14), S. pyogenes 1079 (ermB)
Experimental: (§1) The assay described herein includes a panel of bacterial strains assembled to include a variety of target pathogenic species, including representatives of macrolide resistance mechanisms that have been characterized. In many cases, both the macrolide-susceptible parent strain and the macrolide-resistant strain derived from it are available to provide a more accurate assessment of the compound's ability to circumvent the resistance mechanism. The assay is performed in microtiter trays and interpreted according to Performance Standards for Antimicrobial Susceptibility Testing; 14th Informational Supplement (M100-S14), published by The National Committee for Clinical Laboratory Standards (NCCLS) guidelines; the MIC is used to compare strains. Compounds are initially dissolved in DMSO as 40 mg/ml stock solutions.

[2] = system: Streptococcus pneumoniae 1016; experiment: MIC, microtiter broth dilution (NCCLS M100-S14), S. pneumoniae 1016 (susceptible)
Experimental: as §1

[3] = system: Streptococcus pneumoniae 1095; conditions: microtiter broth dilution
Experimental: as §1

[4] = system: Streptococcus pneumoniae 1175; conditions: microtiter broth dilution
Experimental: as §1

[5] = system: Haemophilus influenzae 1218; experiment: MIC, microtiter broth dilution (NCCLS M100-S14), H. influenzae 1218 (susceptible)
Experimental: as §1

Compound | MIC S. pyogenes 1079 ([1]; S. pyogenes 1079 (ermB)) [µg/mL] | MIC S. pneumo. 1016 ([2]; S. pneumoniae 1016 (susceptible)) [µg/mL] | MIC S. pneumo. 1095 ([3]; S. pneumoniae 1095 (ermB)) [µg/mL] | MIC S. pneumo. 1175 ([4]; S. pneumoniae 1175 (mefA)) [µg/mL] | MIC H. influenzae 1218 ([5]; H. influenzae 1218 (susceptible)) [µg/mL] | MIC S. pyogenes 1079 ([1]; Streptococcus pyogenes 1079) [µg/mL] | MIC S. pneumo. 1016 ([2]; Streptococcus pneumoniae 1016) [µg/mL] | MIC S. pneumo. 1095 ([3]; Streptococcus pneumoniae 1095) [µg/mL] | MIC S. pneumo. 1175 ([4]; Streptococcus pneumoniae 1175) [µg/mL] | MIC H. influenzae 1218 ([5]; Haemophilus influenzae 1218) [µg/mL]
3-descladinosyl-11,12-dideoxy-6-O-methyl-3-oxo-12,11-(oxycarbonyl-(1-((1H-benzo[d]imidazol-4-yl)-methyl)-(R)-pyrrolidin-3-yl)-imino)-erythromycin A [Example 9.06] | 4 | <0.06 | <0.06 | <0.06 | 0.25 | – | – | – | – | –
3-descladinosyl-11,12-dideoxy-6-O-methyl-3-oxo-12,11-(oxycarbonyl-(1-((isoquinolin-4-yl)-methyl)-azetidin-3-yl)-imino)-erythromycin A [Example 1.30] | – | – | – | – | – | 4 | <0.06 | <0.06 | <0.06 | 1
3-descladinosyl-11,12-dideoxy-6-O-methyl-3-oxo-12,11-(oxycarbonyl-(1-(quinoline-6-sulfonyl)-azetidin-3-yl)-imino)-erythromycin A [Example 3.89] | – | – | – | – | – | 8 | <0.06 | <0.06 | <0.06 | 1
CCC(c1ccnc2ccccc12)N1CC(N2C(=O)OC3(C)C(CC)OC(=O)C(C)C(=O)C(C)C(OC4OC(C)CC(N(C)C)C4O)C(C)(OC)CC(C)C(=O)C(C)C23)C1 (mixture of isomers) [Example 1.61, 3-descladinosyl-11,12-dideoxy-6-O-methyl-3-oxo-12,11-(oxycarbonyl-(1-(1-(quinolin-4-yl)-propyl)-azetidin-3-yl)-imino)-erythromycin A] | – | – | – | – | – | 8 | <0.06 | <0.06 | 0.25 | 4
CCC1OC(=O)C(C)C(=O)C(C)C(OC2OC(C)CC(N(C)C)C2O)C(C)(OC)CC(C)C(=O)C(C)C2N(C3CN(C(c4ccccc4)c4cccnc4)C3)C(=O)OC12C (single isomer, unassigned) [Example 1.66, phenyl-(pyridin-3-yl)methyl (*)] | – | – | – | – | – | 64 (≈ 76.6 µM) | <0.06 | 0.5 (≈ 0.599 µM) | <0.06 | 2 (≈ 2.4 µM)
CCC1OC(=O)C(C)C(=O)C(C)C(OC2OC(C)CC(N(C)C)C2O)C(C)(OC)CC(C)C(=O)C(C)C2N(C3CN(C(c4ccccc4)c4cccnc4)C3)C(=O)OC12C (single isomer, unassigned) [Example 1.67, phenyl-(pyridin-3-yl)methyl (*)] | – | – | – | – | – | 16 (≈ 19.2 µM) | <0.06 | <0.06 | <0.06 | 0.5 (≈ 0.599 µM)
CCC1OC(=O)C(C)C(=O)C(C)C(OC2OC(C)CC(N(C)C)C2O)C(C)(OC)CC(C)C(=O)C(C)C2N(C3CN(C(c4ccccc4)c4ccncc4)C3)C(=O)OC12C (single isomer, unassigned) [Example 1.68, phenyl-(pyridin-4-yl)methyl (*)] | – | – | – | – | – | 32 (≈ 38.3 µM) | <0.06 | 4 (≈ 4.79 µM) | <0.06 | 4 (≈ 4.79 µM)
CCC1OC(=O)C(C)C(=O)C(C)C(OC2OC(C)CC(N(C)C)C2O)C(C)(OC)CC(C)C(=O)C(C)C2N(CC3CN(C(=O)c4cc(F)ccc4F)C3)C(=O)OC12C (stereo not drawn) [4.02] | – | – | – | – | – | 100 (≈ 122 µM) | 0.01 (≈ 0.0122 µM) | 0.5 (≈ 0.608 µM) | 0.5 (≈ 0.608 µM) | 3.12 (≈ 3.8 µM)
CCC1OC(=O)C(C)C(=O)C(C)C(OC2OC(C)CC(N(C)C)C2O)C(C)(OC)CC(C)C(=O)C(C)C2N(CC3CN(C(=O)c4cccnc4)C3)C(=O)OC12C (stereo not drawn) [4.03] | – | – | – | – | – | >100.00 | 0.02 (≈ 0.0254 µM) | 0.39 (≈ 0.496 µM) | 0.78 (≈ 0.991 µM) | 1.56 (≈ 1.98 µM)
CCC1OC(=O)C(C)C(=O)C(C)C(OC2OC(C)CC(N(C)C)C2O)C(C)(OC)CC(C)C(=O)C(C)C2N(CC3CN(Cc4cccnc4)C3)C(=O)OC12C (stereo not drawn) [4.04] | – | – | – | – | – | >64.00 | <0.06 | 16 (≈ 20.7 µM) | 0.25 (≈ 0.323 µM) | 0.5 (≈ 0.647 µM)
CCC1OC(=O)C(C)C(=O)C(C)C(OC2OC(C)CC(N(C)C)C2O)C(C)(OC)CC(C)C(=O)C(C)C2N(CC3CN(C(=O)c4ccncc4)C3)C(=O)OC12C (stereo not drawn) [4.05] | – | – | – | – | – | >64.00 | 0.02 (≈ 0.0254 µM) | 2 (≈ 2.54 µM) | 1 (≈ 1.27 µM) | 4 (≈ 5.08 µM)
CCC1OC(=O)C(C)C(=O)C(C)C(OC2OC(C)CC(N(C)C)C2O)C(C)(OC)CC(C)C(=O)C(C)C2N(CC3CN(C(=O)c4cccc(C#N)c4)C3)C(=O)OC12C (stereo not drawn) [4.06] | – | – | – | – | – | >100.00 | 0.02 (≈ 0.0247 µM) | 12.5 (≈ 15.4 µM) | 0.39 (≈ 0.481 µM) | 3.12 (≈ 3.85 µM)
CCC1OC(=O)C(C)C(=O)C(C)C(OC2OC(C)CC(N(C)C)C2O)C(C)(OC)CC(C)C(=O)C(C)C2N(CC3CN(S(=O)(=O)c4cccc(C#N)c4)C3)C(=O)OC12C (stereo not drawn) [4.07] | – | – | – | – | – | >64.00 | <0.06 | 24 (≈ 28.3 µM) | 0.19 (≈ 0.224 µM) | 1 (≈ 1.18 µM)
CCC1OC(=O)C(C)C(=O)C(C)C(OC2OC(C)CC(N(C)C)C2O)C(C)(OC)CC(C)C(=O)C(C)C2N(CC3CN(Cc4cccc(C#N)c4)C3)C(=O)OC12C (stereo not drawn) [4.08] | – | – | – | – | – | >64.00 | <0.06 | 32 (≈ 40.2 µM) | <0.06 | 0.12 (≈ 0.151 µM)
CCC1OC(=O)C(C)C(=O)C(C)C(OC2OC(C)CC(N(C)C)C2O)C(C)(OC)CC(C)C(=O)C(C)C2N(CC3CN(Cc4ccn[nH]4)C3)C(=O)OC12C (stereo not drawn) [4.09] | – | – | – | – | – | >64.00 | <0.06 | 32 (≈ 42 µM) | 0.5 (≈ 0.656 µM) | 0.12 (≈ 0.157 µM)
CCC1OC(=O)C(C)C(=O)C(C)C(OC2OC(C)CC(N(C)C)C2O)C(C)(OC)CC(C)C(=O)C(C)C2N(CC3CN(Cc4cnc5ccccc5c4)C3)C(=O)OC12C (stereo not drawn) [4.10] | – | – | – | – | – | 16 (≈ 19.4 µM) | <0.06 | 1 (≈ 1.22 µM) | <0.06 | <0.06
CCC1OC(=O)C(C)C(=O)C(C)C(OC2OC(C)CC(N(C)C)C2O)C(C)(OC)CC(C)C(=O)C(C)C2N(CC3CN(Cc4c[nH]c5ccccc45)C3)C(=O)OC12C (stereo not drawn) [4.11] | – | – | – | – | – | 64 (≈ 78.9 µM) | <0.06 | 4 (≈ 4.93 µM) | 2 (≈ 2.47 µM) | 1 (≈ 1.23 µM)
CCC1OC(=O)C(C)C(=O)C(C)C(OC2OC(C)CC(N(C)C)C2O)C(C)(OC)CC(C)C(=O)C(C)C2N(CC3CN(Cc4cnc5ccccc5n4)C3)C(=O)OC12C (stereo not drawn) [4.12] | – | – | – | – | – | 64 (≈ 77.7 µM) | <0.06 | 8 (≈ 9.71 µM) | 0.12 (≈ 0.146 µM) | 1 (≈ 1.21 µM)
CCC1OC(=O)C(C)C(=O)C(C)C(OC2OC(C)CC(N(C)C)C2O)C(C)(OC)CC(C)C(=O)C(C)C2N(C3CN(Cc4cccc(-n5ccnn5)c4)C3)C(=O)OC12C (stereo not drawn) [Example 1.56, 3-([1,2,3]triazol-1-yl)benzyl] | – | – | – | – | – | >64.00 | – | <0.06 | <0.06 | 1 (≈ 1.21 µM)
CCC1OC(=O)C(C)C(=O)C(C)C(OC2OC(C)CC(N(C)C)C2O)C(C)(OC)CC(C)C(=O)C(C)C2N(C3CN(Cc4ccc(-n5ccnc5)cc4)C3)C(=O)OC12C (stereo not drawn) [Example 1.57, 4-(imidazol-1-yl)benzyl] | – | – | – | – | – | 64 (≈ 77.7 µM) | – | <0.06 | <0.06 | 1 (≈ 1.21 µM)
CCC1OC(=O)C(C)C(=O)C(C)C(OC2OC(C)CC(N(C)C)C2O)C(C)(OC)CC(C)C(=O)C(C)C2N(C3CN(Cc4ccccc4OC(F)(F)F)C3)C(=O)OC12C (stereo not drawn) [Example 1.88, 3-descladinosyl-11,12-dideoxy-6-O-methyl-3-oxo-12,11-(oxycarbonyl-(1-(2-(trifluoromethoxy)benzene-1-methyl)-azetidin-3-yl)-imino)-erythromycin A] | – | – | – | – | – | 8 (≈ 9.5 µM) | <0.063 | – | – | 0.5 (≈ 0.594 µM)
CCC1OC(=O)C(C)C(=O)C(C)C(OC2OC(C)CC(N(C)C)C2O)C(C)(OC)CC(C)C(=O)C(C)C2N(C3CN(S(=O)(=O)c4c(Cl)nc5sccn45)C3)C(=O)OC12C (stereo not drawn) [Example 3.97, 3-descladinosyl-11,12-dideoxy-6-O-methyl-3-oxo-12,11-(oxycarbonyl-(1-(6-chloroimidazo[2,1-b]thiazole-5-sulfonyl)-azetidin-3-yl)-imino)-erythromycin A] | – | – | – | – | – | 1 (≈ 1.13 µM) | – | 0.25 (≈ 0.281 µM) | <0.063 | 0.125 (≈ 0.141 µM)
